Measured values: ChEMBL document CHEMBL1141745, “New Sesquiterpene Lactones from Illicium floridanum” (J Nat Prod, 1998)

Test: Neurotoxicity against ip dosed mouse
Assay type: toxicity, organism-based
Settings: in vivo

Work on C[C@@H]1C[C@@H](O)[C@@]2(O)[C@@]13C[C@@H](OC(=O)[C@H]3O)[C@](C)(O)[C@@]21COC1=O [ANISATIN] yielded an LD50 of 1 mg/kg.
